Reference: ChEMBL document CHEMBL3797106, “Potent and Selective Agonists of Sphingosine 1-Phosphate 1 (S1P1): Discovery and SAR of a Novel Isoxazole Based Series” (J Med Chem, 2016)
Active and inactive are the calls of the source. The rule behind the calls is not given here.

How the values were obtained:
Rattus norvegicus [1] = assay: Reduction of blood lymphocyte level in Lewis rat at 1 mg/kg, po measured at 4 hrs by hematology analyzer relative to vehicle-treated control; format: functional; parameters: scale not given: the % may be the effect or the level left
Rattus norvegicus [2] = assay: Reduction of blood lymphocyte level in po dosed Lewis rat measured at 4 to 24 hrs by hematology analyzer; format: functional, organism-based
Cytochrome P450 2C19 = Cytochrome P450 2C19 (Homo sapiens, UniProt P33261); assay: Inhibition of CYP2C19 (unknown origin); format: ADME
Rattus norvegicus [3] = assay: Antiarthritic activity in complete Freund's adjuvant-induced Lewis rat arthritis model assessed as suppression of paw swelling at 0.1 mg/kg, po qd for 21 days started from day of immunization measured 3 times per week of compound dosing by water displacement plethysmometry relative to control; format: functional
[4] = biological target: T1, Sphingosine 1-phosphate receptor 1 (Homo sapiens, UniProt P21453); assay: Induction of internalization of C-terminal GFP-fused human S1P1 receptor expressed in CHO […] assessed as remaining receptor level in cell membrane at 4.6 nM preincubated for 50 mins followed by compound washout measured at 16 hrs relative to control; format: cell-based
Mus musculus [5] = assay: Inhibition of demyelination in spinal cord of po dosed C57BL/6 mouse experimental autoimmune encephalomyelitis model of multiple sclerosis administered as qd for 24 days started from day of immunization; format: functional, organism-based
Homo sapiens [6] = organism: Homo sapiens; assay: Inhibition of calcium channel (unknown origin) at 10 uM by patch clamp method relative to control
Rattus norvegicus [7] = assay: Reduction of blood lymphocyte level in Lewis rat at 0.03 mg/kg, po measured at 24 hrs by hematology analyzer relative to vehicle-treated control; format: functional; parameters: scale not given: the % may be the effect or the level left
Rattus norvegicus [8] = assay: Antiarthritic activity in complete Freund's adjuvant-induced Lewis rat arthritis model assessed as suppression of paw swelling at 0.03 mg/kg, po qd for 21 days started from day of immunization measured 3 times per week of compound dosing by water displacement plethysmometry; format: functional, organism-based
[9] = Plasma protein binding in dog; format: ADME, cell-free, Canis lupus familiaris; settings: read-out: PPB
Mus musculus [10] = assay: Clearance in mouse at 2 mg/kg, iv relative to hepatic blood flow; format: ADME, organism-based; settings: in vivo
[11] = AUC in rat at 5 mg/kg, po; format: ADME, organism-based; settings: in vivo
[12] = Mean residence time in dog at 1 mg/kg, iv; format: ADME, organism-based, Canis lupus familiaris; settings: in vivo
[13] = AUC in dog at 1 mg/kg, po; format: ADME, organism-based, Canis lupus familiaris; settings: in vivo
[14] = Plasma concentration in Lewis rat at 1 mg/kg, po measured at 4 hrs; format: ADME, organism-based
[15] = Clearance in rat at 2 mg/kg, iv; format: ADME, organism-based; settings: in vivo
[16] = Plasma protein binding in human; format: ADME, cell-free; settings: read-out: PPB (converted)
Plasma = assay: Ratio drug level in Lewis rat plasma at 1 mg/kg, po at 4 hrs to drug level in Lewis rat plasma at 1 mg/kg, po at 24 hrs; format: ADME, organism-based; settings: in vivo
Rattus norvegicus [17] = assay: Antiarthritic activity in po dosed complete Freund's adjuvant-induced Lewis rat arthritis model assessed as inhibition of bone resorption administered as qd for 21 days started from day of immunization; format: functional, organism-based
[18] = Tmax in mouse at 10 mg/kg, po; format: ADME, organism-based; settings: in vivo
Rattus norvegicus [19] = assay: Antiarthritic activity in po dosed complete Freund's adjuvant-induced Lewis rat arthritis model assessed as suppression of paw swelling administered as qd for 21 days started from day of immunization measured 3 times per week of compound dosing by water displacement plethysmometry; format: functional; settings: 504 h
[20] = Cmax in rat at 5 mg/kg, po; format: ADME, organism-based; parameters: dose 5 mg/kg, route oral; settings: in vivo
[21] = Plasma concentration in Lewis rat at 0.03 mg/kg, po measured at 4 hrs; format: ADME, organism-based
Cytochrome P450 3A4 = Cytochrome P450 3A4 (Homo sapiens, UniProt P08684); assay: Inhibition of CYP3A4 (unknown origin); format: ADME
Mus musculus [22] = assay: AUC in mouse at 10 mg/kg, po; format: ADME, organism-based; settings: in vivo
Mus musculus [23] = assay: Induction of delay in disease onset in po dosed C57BL/6 mouse experimental autoimmune encephalomyelitis model of multiple sclerosis administered as qd for 24 days started from day of immunization measured 3 times per week of compound dosing; format: functional, organism-based
[24] = Permeability across apical to basolateral side in human Caco2 cells; format: ADME, cell-based; settings: Caco-2, read-out: permeability
[25] = Plasma concentration in Lewis rat at 0.03 mg/kg, po measured at 24 hrs; format: ADME, organism-based
[26] = Plasma protein binding in rat; format: ADME, cell-free; settings: read-out: PPB (converted)
[27] = Clearance in dog at 1 mg/kg, iv; format: ADME, organism-based, Canis lupus familiaris; settings: in vivo
[28] = Mean residence time in mouse at 2 mg/kg, iv; format: ADME, organism-based; settings: in vivo
Rattus norvegicus [29] = assay: Clearance in rat at 2 mg/kg, iv relative to hepatic blood flow; format: ADME, organism-based; settings: in vivo
[30] = Clearance in cynomolgus monkey at 2 mg/kg, iv; format: ADME, organism-based, Macaca fascicularis; settings: in vivo
[31] = Volume of distribution at steady state in cynomolgus monkey at 2 mg/kg, iv; format: ADME, organism-based, Macaca fascicularis; settings: in vivo, read-out: Vdss
Rattus norvegicus [32] = assay: Antiarthritic activity in complete Freund's adjuvant-induced Lewis rat arthritis model assessed as suppression of paw swelling at 0.5 to 3 mg/kg, po qd for 21 days started from day of immunization measured 3 times per week of compound dosing by water displacement plethysmometry; format: functional, organism-based
[33] = Plasma concentration in Lewis rat at 0.3 mg/kg, po measured at 4 hrs; format: ADME, organism-based
[34] = Half life in cynomolgus monkey at 2 mg/kg, iv; format: ADME, organism-based, Macaca fascicularis; settings: in vivo
[35] = biological target: T1, Sphingosine 1-phosphate receptor 1; assay: Agonist activity at human S1P1 receptor expressed in CHO cell membranes after 45 mins by [35S]-GTPgammaS binding assay; format: functional
[36] = Plasma concentration in Lewis rat at 0.3 mg/kg, po measured at 24 hrs; format: ADME, organism-based
Homo sapiens [37] = organism: Homo sapiens; assay: Inhibition of sodium channel (unknown origin) at 10 uM by patch clamp method relative to control
[38] = AUC in cynomolgus monkey at 5 mg/kg, po; format: ADME, organism-based, Macaca fascicularis; settings: in vivo
[39] = Oral bioavailability in cynomolgus monkey at 5 mg/kg; format: ADME, organism-based, Macaca fascicularis; settings: in vivo
Cytochrome P450 2D6 = Cytochrome P450 2D6 (Homo sapiens, UniProt P10635); assay: Inhibition of CYP2D6 (unknown origin); format: ADME
[40] = Lipophilicity, log D of the compound at pH 6.5; format: physicochemical; settings: buffer
Rattus norvegicus [41] = assay: Reduction of blood lymphocyte level in Lewis rat at 1 mg/kg, po measured at 24 hrs by hematology analyzer relative to vehicle-treated control; format: functional; parameters: scale not given: the % may be the effect or the level left
[42] = Volume of distribution at steady state in rat at 2 mg/kg, iv; format: ADME, organism-based; settings: in vivo, read-out: Vdss
[43] = Cmax in mouse at 10 mg/kg, po; format: ADME, organism-based; parameters: dose 10 mg/kg, route oral; settings: in vivo
[44] = Cmax in cynomolgus monkey at 5 mg/kg, po; format: ADME, organism-based, Macaca fascicularis; parameters: dose 5 mg/kg, route oral; settings: in vivo
[45] = Oral bioavailability in rat at 5 mg/kg; format: ADME, organism-based; settings: in vivo
Mus musculus [46] = assay: Reduction in clinical score in po dosed C57BL/6 mouse experimental autoimmune encephalomyelitis model of multiple sclerosis administered as qd for 24 days started from day of immunization measured 3 times per week of compound dosing; format: functional; settings: C57BL/6, po, 576 h
Salmonella typhi = assay: Mutagenicity in Salmonella typhi by Ames test; format: toxicity, organism-based; settings: salmonella enterica subsp. enterica […]
[47] = biological target: T1, Sphingosine 1-phosphate receptor 1; assay: Induction of internalization of C-terminal GFP-fused human S1P1 receptor expressed in CHO […] after 50 mins; format: cell-based
[48] = Plasma concentration in Lewis rat at 1 mg/kg, po measured at 24 hrs; format: ADME, organism-based

T1 sequence (P21453 whole entry, the tested form may be a part): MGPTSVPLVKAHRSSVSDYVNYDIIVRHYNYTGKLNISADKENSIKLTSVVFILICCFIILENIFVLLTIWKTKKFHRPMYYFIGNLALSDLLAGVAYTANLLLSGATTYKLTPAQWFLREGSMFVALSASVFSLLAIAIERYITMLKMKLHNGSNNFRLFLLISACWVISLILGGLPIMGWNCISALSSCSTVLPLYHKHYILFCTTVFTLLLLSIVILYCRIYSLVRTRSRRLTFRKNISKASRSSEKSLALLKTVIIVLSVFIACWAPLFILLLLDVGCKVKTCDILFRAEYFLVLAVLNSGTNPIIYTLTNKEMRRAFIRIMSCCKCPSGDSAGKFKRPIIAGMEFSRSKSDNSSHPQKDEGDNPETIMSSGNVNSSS
Cytochrome P450 3A4, sequence (P08684 whole entry): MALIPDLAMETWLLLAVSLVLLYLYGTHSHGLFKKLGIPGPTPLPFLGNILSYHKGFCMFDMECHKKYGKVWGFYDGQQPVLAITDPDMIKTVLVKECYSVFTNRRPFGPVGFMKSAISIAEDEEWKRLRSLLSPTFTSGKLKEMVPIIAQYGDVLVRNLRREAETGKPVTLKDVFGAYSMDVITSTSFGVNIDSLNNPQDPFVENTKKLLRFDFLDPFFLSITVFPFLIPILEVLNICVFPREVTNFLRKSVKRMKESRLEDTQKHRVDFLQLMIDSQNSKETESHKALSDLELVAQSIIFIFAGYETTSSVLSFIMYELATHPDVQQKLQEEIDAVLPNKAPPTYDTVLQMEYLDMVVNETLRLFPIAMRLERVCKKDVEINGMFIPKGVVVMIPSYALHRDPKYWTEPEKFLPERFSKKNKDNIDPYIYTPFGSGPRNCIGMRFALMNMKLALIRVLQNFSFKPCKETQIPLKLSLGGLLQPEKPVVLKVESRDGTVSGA
Cytochrome P450 2D6, sequence (P10635 whole entry): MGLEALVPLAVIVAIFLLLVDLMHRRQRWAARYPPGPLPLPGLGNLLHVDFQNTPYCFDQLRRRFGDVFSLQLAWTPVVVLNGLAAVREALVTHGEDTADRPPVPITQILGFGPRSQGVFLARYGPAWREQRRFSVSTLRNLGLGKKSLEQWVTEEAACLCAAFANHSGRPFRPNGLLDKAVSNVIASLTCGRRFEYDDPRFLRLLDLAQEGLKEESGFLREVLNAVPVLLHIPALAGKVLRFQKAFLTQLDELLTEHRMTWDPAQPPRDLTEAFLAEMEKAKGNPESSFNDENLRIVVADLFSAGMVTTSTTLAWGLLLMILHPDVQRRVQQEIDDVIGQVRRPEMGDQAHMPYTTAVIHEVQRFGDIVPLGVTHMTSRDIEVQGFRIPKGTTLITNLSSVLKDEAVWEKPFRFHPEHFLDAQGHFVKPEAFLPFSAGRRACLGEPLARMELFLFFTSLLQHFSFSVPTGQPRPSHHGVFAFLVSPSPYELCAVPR
Cytochrome P450 2C19, sequence (P33261 whole entry): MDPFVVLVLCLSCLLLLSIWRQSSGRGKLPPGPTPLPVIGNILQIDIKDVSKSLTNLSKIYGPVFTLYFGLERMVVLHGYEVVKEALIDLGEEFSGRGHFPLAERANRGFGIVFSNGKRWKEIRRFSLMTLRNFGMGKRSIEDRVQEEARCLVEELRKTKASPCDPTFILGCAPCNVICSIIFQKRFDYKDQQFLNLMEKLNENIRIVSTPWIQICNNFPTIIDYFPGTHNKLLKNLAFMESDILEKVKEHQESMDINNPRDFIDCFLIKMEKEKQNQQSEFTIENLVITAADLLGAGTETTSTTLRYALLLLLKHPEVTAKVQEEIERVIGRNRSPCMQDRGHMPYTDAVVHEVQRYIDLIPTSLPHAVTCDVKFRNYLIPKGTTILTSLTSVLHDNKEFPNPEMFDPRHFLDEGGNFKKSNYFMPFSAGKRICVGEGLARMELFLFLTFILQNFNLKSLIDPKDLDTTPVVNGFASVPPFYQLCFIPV

O=C(O)C1CN(Cc2ccc(-c3noc(-c4onc(-c5ccccc5)c4C(F)(F)F)n3)cc2)C1
Activity (Rattus norvegicus [1]): 78% | Activity (Rattus norvegicus [2]): Dose-dependent effect | IC50 (Cytochrome P450 2C19): > 40000 nM | Activity (Rattus norvegicus [3]): >50% | Activity [4]: 40% | inhibition (Mus musculus [5]): Dose-dependent effect | inhibition (Homo sapiens [6]): 12% | Activity (Rattus norvegicus [7]): 45% | Activity (Rattus norvegicus [8]): inactive | fraction unbound [9]: 0.01 | CL (Mus musculus [10]): 0.3% | AUC [11]: 44 µM·h | MRT [12]: 8.9 h | AUC [13]: 11 µM·h | concentration at 4 h [14]: 2100 nM | clearance [15]: 1.7 mL/min/kg | fraction unbound [16]: 0.003 | Ratio (Plasma): 3 | inhibition (Rattus norvegicus [17]): Dose-dependent effect | Tmax [18]: 3 h | ED50 (Rattus norvegicus [19]): 0.05 mg/kg | Cmax [20]: 3900 nM | concentration at 4 h [21]: 20 nM | IC50 (Cytochrome P450 3A4): > 40000 nM | AUC (Mus musculus [22]): 250 µM·h | Activity (Mus musculus [23]): Dose-dependent effect | Papp A→B [24]: 10.4 ×10⁻⁶ cm/s | concentration at 24 h [25]: 4 nM | fraction unbound [26]: 0.006 | clearance [27]: 1.6 mL/min/kg | MRT [28]: 14 h | CL (Rattus norvegicus [29]): 2.4% | clearance [30]: 5.2 mL/min/kg | Vd [31]: 0.6 L/kg | Activity (Rattus norvegicus [32]): Active | concentration at 4 h [33]: 180 nM | half-life [34]: 3 h | EC50 [35]: 0.47 nM | concentration at 24 h [36]: 25 nM | inhibition (Homo sapiens [37]): < 5% | AUC [38]: 25 µM·h | bioavailability [39]: 70% | IC50 (Cytochrome P450 2D6): > 40000 nM | logD [40]: 2.68 | Activity (Rattus norvegicus [41]): 91% | Vd [42]: 1.4 L/kg | Cmax [43]: 31000 nM | Cmax [44]: 4000 nM | bioavailability [45]: 52% | ED50 (Mus musculus [46]): 0.02 mg/kg | Activity (Salmonella typhi): Non-toxic | EC50 [47]: 0.27 nM | concentration at 24 h [48]: 700 nM
